Tests used:
[1] = system: blastocyst implantation in murine endometrial epithelium monolayers; assay: In vitro implantation - mouse model (blastocysts co-cultured with endometrial monolayer); type: cell-based; details: for Test impl/total (no. of blastocysts implanting/total no. of blastocysts added to the culture): test medium supplemented with 0.1 mM test oligosaccharide, control medium values stand in the neighbouring column
Procedure: In the mouse in vitro implantation system blastocyst implantation in murine endometrial epithelium monolayers was compared in 2 different media: the control medium (i.e. a medium which had supported more than 80% murine blastocyst formation from 2-cell embryos within 72 hours) and test medium (i.e. identical with the control medium except supplemented with 0.1 mM test oligosaccharide).
As control medium we used Earle's minimum essential medium (MEM) (Flow Lab), supplemented with penicillin-G 0.0075 g/l, streptomycin 0.075 g/l, glutamine 1 mM, fetal calf serum 5% and a vegetable protein source 2% (Ultrose-G, LKB, 2216-100). The final osmolality was adjusted to 285 mOsmol/kg and a pH of 7.4.
The mice were F1 hybrid B6D2F1/Bom (from the Laboratory of Animal Breeding and Research Center, Gl.Bomholdt Gȧrd, LTv., 8680 Ry, Denmark). Females aged 26 days and weighing 13-18 g and mature 6 months old males of previously proven fertility were used. They were housed in air-conditioned quarters with pelleted food and water available ad libitum and light between 7.30 a.m. and 7.30 p.m.
The female mice were superovulated with 5 I.U. FSH/LH (Antex, Leo Pharmaceuticals, Denmark) injected intraperitoneally at 9 a.m. day 1. 48 hours later (on day 3), ovulation was induced with 2.5 I.U. HCG. They were caged with males at 1 p.m. and left overnight. Mating was confirmed on the morning of day 4 by the presence of a vaginal plug.
Females were sacrificed at 9 a.m. on day 5. The oviducts were isolated and the 2-cell embryos flushed from the tubes using hand drawn glass pipettes.
Handling the 2-cells embryos outside the CO₂ incubator was carried out in the control medium supplemented with a HEPES buffer 20 mM (Flow Lab. 16-884-49).
After the oviducts were collected, the uterus of each mouse was isolated. The uterus was opened longitudinally and scraped with a rubber policeman on the uterine epithelial surface to col lect endometrial cells. These cells were handled in the HEPES buffered control medium as well. […]

667/9E9 = assay: Inhibition by oligosaccharide of 667/9E9 staining of endometrial sections; type: binding, mice; details: day 4 and 5 sections; addition of 1 mM
Procedure: Fixed or unfixed sections were hydrated in Dulbecco's phosphate buffer pH 7.2, containing 0.1% Bovine serum albumin and 0.05% Tween 20. All antibodies and sera were diluted in the same buffer. The sections were incubated for 30 minutes in a 1/20 dilution of normal non immune goat serum […] to prevent nonspecific binding. Monoclonal antibody supernatants were diluted to either 1/10 or 1/20. The sections were overlayered with 50 µl of the primary antibody and incubated overnight in a humidified atmosphere at 4°C. Following this the sections were rinsed 4 times in the buffer and again incubated for 30 minutes in 1/20 normal goat serum. They were then stained with the second antibody, a fluorescein isothiocyanate (FITC) conjugated goat anti-mouse IgM at a final dilution of 1/80. The sections were finally rinsed in the buffer and mounted in 2.5% DABCO (Boehringer Mannheim, Germany) in 80% glycerol.

implantation = assay: In vivo inhibition of implantation in the mouse (intrauterine injection); set-up: species or system NMRI mice
Procedure: In this study the effect of structure A, injected into the uteri of naturally mated and unstimulated mice, was investigated.
10 weeks old NMRI mice were caged with NMRI males of previously proven fertility.
At plug day 4 (at 1 p.m.) the mice were anaestezed using mebumal. The abdomen was opened through a midline incision and the genital tract was identified. A 6-0 selk sutur was placed around the vaginal top intraperitoneally. 5µl of Earle's balanced salt solution (EBS) supplemented with 5 mmol/l of structure A or unsupplemented were injected into the uterine horns. The test group contained 20 mice who were injected with supplemented media containing structure A, where as the controls (15 mice) were injected with EBS unsupplemented medium.

CC(=O)N[C@H]1[C@H](O[C@H]2[C@@H](O)[C@@H](CO)O[C@@H](O[C@H]3[C@H](O)[C@@H](O)C(O)O[C@@H]3CO)[C@@H]2O)O[C@H](CO)[C@@H](O)[C@@H]1O[C@@H]1O[C@H](CO)[C@H](O)[C@H](O)[C@H]1O (stereo partly drawn) [structure B, reference compound]
Test impl/total (no. of blastocysts implanting/total no. of blastocysts added to the culture) [1]: 92/129

CC(=O)N[C@H]1[C@H](O[C@H]2[C@@H](O)[C@@H](CO)O[C@@H](O[C@H]3[C@H](O)[C@@H](O)C(O)O[C@@H]3CO)[C@@H]2O)O[C@H](CO)[C@@H](O)[C@@H]1O[C@@H]1O[C@H](CO)[C@H](O)[C@H](O)[C@H]1O[C@@H]1O[C@@H](C)[C@@H](O)[C@@H](O)[C@@H]1O (stereo partly drawn) [structure A]
inhibition of the staining of the endometrial sections by 667/9E9 (667/9E9): could be inhibited
inhibition of implantation of mouse embryos (in words) ([1]; oligosaccharide concentration of 0.1 mM): inhibits the implantation of mouse embryos
Test impl/total (no. of blastocysts implanting/total no. of blastocysts added to the culture) [1]: 134/228
inhibition of implantation in vivo (in words) (implantation; 5 mmol/l, 5µl into the uterine horns): inhibits implantation in vivo in the mouse
Impl/horn (implantation; 5µl EBS with 5 mmol/l injected into the uterine horns at plug day 4, 20 mice, controls 4.2): 1.15
